Data from publication PMC10176470, “Engaging a Non-catalytic Cysteine Residue Drives Potent and Selective Inhibition of Caspase-6” (Journal of the American Chemical Society, 2023).
Like-named read-outs stand apart in the source and are kept apart here.

Key:
Assay type in all cases: cell-based
[1] = test system: proteins of HEK293T cells transiently overexpressing caspase-6; settings: exp_ref Probe; protein CBSL (P0DN79); analysis C6
[2] = target: proteins of HEK293T cells transiently overexpressing caspase-6 (Homo sapiens, UniProt P13804); settings: exp_ref Probe; protein ETFA (P13804); analysis C6
[3] = target: proteins of HEK293T cells transiently overexpressing caspase-6 (Homo sapiens, UniProt P61619); settings: exp_ref Probe; protein SEC61A1 (P61619); analysis C6
[4] = target: proteins of HEK293T cells transiently overexpressing caspase-6 (Homo sapiens, UniProt P61978); settings: protein HNRNPK (P61978)
[5] = target: T1, proteins of HEK293T cells transiently overexpressing caspase-6 (Homo sapiens, UniProt P50990); settings: protein CCT8 (P50990)
T1 sequence (P50990 1-548): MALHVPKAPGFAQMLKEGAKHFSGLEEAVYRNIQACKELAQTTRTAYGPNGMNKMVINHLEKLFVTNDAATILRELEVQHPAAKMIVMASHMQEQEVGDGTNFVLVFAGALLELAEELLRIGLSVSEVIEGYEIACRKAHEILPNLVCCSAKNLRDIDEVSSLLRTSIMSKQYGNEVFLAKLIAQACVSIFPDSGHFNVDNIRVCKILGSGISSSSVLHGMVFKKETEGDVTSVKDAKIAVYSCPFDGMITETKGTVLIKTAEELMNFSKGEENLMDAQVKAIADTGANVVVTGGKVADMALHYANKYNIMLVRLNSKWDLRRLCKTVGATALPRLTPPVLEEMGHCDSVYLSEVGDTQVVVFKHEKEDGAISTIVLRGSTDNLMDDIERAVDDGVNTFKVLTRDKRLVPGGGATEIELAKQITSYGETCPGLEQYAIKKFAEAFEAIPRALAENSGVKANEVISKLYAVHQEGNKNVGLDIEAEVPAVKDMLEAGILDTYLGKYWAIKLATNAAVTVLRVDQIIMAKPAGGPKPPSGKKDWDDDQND

[6] = target: proteins of HEK293T cells transiently overexpressing caspase-6 (Homo sapiens, UniProt P10155); settings: Probe; protein TROVE2 P10155
[7] = target: proteins of HEK293T cells transiently overexpressing caspase-6 (Homo sapiens, UniProt P04181); settings: exp_ref Probe; protein OAT (P04181); analysis C6
[8] = target: proteins of HEK293T cells transiently overexpressing caspase-6 (Homo sapiens, UniProt Q8TCD1); settings: protein C18orf32 (Q8TCD1)
[9] = target: proteins of HEK293T cells transiently overexpressing caspase-6 (Homo sapiens, UniProt P35232); settings: Probe; protein PHB P35232
[10] = target: proteins of HEK293T cells transiently overexpressing caspase-6 (Homo sapiens, UniProt Q16881); settings: exp_ref Probe; protein TXNRD1 (Q16881); analysis C6
[11] = target: proteins of HEK293T cells transiently overexpressing caspase-6 (Homo sapiens, UniProt P04183); settings: exp_ref Probe; protein TK1 (P04183); analysis C6
[12] = target: proteins of HEK293T cells transiently overexpressing caspase-6 (Homo sapiens, UniProt Q08211); settings: exp_ref Probe; protein DHX9 (Q08211); analysis C6
[13] = target: T2, proteins of HEK293T cells transiently overexpressing caspase-6 (Homo sapiens, UniProt P45880); settings: protein VDAC2 (P45880)
T2 sequence (P45880 1-294): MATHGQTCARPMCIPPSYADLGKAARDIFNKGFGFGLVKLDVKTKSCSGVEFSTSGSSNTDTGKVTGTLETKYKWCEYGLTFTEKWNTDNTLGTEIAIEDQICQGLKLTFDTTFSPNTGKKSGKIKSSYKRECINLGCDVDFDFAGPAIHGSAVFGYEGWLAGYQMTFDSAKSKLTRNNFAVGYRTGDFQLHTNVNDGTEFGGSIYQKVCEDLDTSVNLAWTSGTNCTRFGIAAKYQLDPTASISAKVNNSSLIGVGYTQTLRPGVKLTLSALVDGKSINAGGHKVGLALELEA

[14] = target: proteins of HEK293T cells transiently overexpressing caspase-6 (Homo sapiens, UniProt Q04637); settings: protein EIF4G1 (Q04637)
[15] = target: proteins of HEK293T cells transiently overexpressing caspase-6 (Homo sapiens, UniProt P14618); settings: protein PKM (P14618)
[16] = target: T3, proteins of HEK293T cells transiently overexpressing caspase-6 (Homo sapiens, UniProt P30041); settings: protein PRDX6 (P30041)
T3 sequence (P30041 1-224): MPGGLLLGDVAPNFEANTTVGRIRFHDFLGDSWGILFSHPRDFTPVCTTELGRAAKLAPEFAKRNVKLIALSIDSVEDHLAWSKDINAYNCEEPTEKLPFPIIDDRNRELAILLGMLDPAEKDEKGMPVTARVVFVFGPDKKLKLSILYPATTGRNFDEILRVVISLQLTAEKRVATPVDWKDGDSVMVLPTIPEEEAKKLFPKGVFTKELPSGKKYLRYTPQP

Chain of proteins of HEK293T cells transiently overexpressing caspase-6 (Homo sapiens, UniProt P14618) (P14618 whole entry): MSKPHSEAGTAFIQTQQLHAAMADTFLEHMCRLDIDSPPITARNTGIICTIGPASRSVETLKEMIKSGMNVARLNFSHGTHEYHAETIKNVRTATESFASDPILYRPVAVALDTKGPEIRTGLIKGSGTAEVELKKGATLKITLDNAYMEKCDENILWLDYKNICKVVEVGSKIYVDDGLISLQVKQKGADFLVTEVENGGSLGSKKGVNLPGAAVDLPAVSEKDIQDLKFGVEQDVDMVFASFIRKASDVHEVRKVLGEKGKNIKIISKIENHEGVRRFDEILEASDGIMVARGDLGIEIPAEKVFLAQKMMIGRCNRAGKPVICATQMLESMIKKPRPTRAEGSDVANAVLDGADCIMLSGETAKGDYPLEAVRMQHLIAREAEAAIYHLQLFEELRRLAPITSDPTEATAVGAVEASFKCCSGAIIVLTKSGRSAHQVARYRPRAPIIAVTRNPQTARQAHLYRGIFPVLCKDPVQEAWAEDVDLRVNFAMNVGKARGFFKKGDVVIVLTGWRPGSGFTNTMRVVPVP
Chain of proteins of HEK293T cells transiently overexpressing caspase-6 (Homo sapiens, UniProt Q8TCD1) (Q8TCD1 whole entry): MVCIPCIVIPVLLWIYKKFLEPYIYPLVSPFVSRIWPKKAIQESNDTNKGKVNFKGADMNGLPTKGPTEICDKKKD
Chain of proteins of HEK293T cells transiently overexpressing caspase-6 (Homo sapiens, UniProt Q04637) (Q04637 whole entry): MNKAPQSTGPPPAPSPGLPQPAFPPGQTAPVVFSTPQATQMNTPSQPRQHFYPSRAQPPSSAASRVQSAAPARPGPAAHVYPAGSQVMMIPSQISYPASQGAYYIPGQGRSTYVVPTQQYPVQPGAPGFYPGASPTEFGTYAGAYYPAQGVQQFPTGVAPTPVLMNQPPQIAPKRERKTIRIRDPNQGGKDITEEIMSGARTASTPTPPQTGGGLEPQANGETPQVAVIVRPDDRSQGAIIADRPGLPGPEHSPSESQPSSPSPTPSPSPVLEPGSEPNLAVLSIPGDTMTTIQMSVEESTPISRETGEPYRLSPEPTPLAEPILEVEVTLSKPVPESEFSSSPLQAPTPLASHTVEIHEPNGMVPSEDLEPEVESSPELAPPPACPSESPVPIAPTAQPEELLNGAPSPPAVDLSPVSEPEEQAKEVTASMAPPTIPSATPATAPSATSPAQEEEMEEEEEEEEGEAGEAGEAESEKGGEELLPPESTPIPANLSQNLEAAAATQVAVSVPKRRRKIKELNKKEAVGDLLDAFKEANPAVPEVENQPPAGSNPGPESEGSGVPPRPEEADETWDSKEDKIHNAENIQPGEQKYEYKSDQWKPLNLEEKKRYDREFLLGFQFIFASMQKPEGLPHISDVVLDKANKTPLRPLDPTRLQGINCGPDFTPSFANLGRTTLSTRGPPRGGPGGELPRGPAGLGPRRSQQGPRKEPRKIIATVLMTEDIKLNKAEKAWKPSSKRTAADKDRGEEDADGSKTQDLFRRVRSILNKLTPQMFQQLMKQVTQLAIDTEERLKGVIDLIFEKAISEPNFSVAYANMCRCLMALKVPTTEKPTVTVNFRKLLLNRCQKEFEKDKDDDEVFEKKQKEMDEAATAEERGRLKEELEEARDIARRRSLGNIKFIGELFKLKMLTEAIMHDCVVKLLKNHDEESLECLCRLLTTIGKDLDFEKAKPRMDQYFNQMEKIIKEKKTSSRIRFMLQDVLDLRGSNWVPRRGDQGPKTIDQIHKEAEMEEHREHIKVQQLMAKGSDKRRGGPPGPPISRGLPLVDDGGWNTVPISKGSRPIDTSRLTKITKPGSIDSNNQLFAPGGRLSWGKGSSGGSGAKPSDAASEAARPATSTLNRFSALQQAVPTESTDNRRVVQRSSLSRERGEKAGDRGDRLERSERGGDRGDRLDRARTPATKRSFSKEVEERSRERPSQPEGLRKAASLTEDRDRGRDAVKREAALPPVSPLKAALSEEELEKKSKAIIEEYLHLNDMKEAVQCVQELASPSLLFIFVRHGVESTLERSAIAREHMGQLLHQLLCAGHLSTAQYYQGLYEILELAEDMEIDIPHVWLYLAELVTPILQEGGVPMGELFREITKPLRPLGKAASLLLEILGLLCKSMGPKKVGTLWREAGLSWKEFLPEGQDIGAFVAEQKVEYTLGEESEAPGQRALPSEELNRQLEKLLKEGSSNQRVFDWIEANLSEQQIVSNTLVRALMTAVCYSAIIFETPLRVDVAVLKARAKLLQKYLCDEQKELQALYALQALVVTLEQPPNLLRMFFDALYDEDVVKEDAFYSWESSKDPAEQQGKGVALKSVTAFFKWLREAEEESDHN
Chain of proteins of HEK293T cells transiently overexpressing caspase-6 (Homo sapiens, UniProt Q08211) (Q08211 whole entry): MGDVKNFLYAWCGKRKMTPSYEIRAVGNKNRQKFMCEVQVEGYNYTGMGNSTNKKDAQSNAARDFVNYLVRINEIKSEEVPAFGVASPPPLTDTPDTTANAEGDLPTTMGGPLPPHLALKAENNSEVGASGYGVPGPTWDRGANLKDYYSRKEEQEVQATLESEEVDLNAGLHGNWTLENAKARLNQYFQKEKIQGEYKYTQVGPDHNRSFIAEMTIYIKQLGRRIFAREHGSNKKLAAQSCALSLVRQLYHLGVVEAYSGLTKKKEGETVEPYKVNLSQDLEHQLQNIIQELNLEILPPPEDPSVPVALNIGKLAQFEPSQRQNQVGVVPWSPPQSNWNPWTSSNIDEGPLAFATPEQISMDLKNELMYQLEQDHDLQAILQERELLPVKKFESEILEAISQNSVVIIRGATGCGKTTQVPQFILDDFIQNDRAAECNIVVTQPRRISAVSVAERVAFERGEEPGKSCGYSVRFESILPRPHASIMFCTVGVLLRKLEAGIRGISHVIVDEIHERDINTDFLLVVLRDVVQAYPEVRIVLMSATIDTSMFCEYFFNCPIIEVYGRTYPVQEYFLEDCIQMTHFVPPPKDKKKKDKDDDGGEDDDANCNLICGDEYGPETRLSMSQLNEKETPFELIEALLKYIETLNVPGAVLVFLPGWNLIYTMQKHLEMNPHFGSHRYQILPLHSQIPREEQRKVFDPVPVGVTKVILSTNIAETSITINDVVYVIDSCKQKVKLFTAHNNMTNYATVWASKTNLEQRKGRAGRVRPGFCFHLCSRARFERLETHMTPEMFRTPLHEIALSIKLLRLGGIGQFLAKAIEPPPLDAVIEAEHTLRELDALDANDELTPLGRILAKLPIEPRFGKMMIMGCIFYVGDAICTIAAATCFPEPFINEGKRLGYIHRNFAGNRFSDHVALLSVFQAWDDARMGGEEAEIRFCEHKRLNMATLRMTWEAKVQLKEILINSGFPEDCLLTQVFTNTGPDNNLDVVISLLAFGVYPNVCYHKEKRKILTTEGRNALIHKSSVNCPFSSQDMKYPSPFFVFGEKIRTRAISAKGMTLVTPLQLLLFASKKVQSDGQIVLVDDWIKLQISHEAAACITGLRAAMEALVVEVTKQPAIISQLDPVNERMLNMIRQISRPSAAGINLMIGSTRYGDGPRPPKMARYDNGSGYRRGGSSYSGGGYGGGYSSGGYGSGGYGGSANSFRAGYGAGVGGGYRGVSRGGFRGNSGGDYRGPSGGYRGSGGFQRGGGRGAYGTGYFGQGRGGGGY
Chain of proteins of HEK293T cells transiently overexpressing caspase-6 (Homo sapiens, UniProt Q16881) (Q16881 whole entry): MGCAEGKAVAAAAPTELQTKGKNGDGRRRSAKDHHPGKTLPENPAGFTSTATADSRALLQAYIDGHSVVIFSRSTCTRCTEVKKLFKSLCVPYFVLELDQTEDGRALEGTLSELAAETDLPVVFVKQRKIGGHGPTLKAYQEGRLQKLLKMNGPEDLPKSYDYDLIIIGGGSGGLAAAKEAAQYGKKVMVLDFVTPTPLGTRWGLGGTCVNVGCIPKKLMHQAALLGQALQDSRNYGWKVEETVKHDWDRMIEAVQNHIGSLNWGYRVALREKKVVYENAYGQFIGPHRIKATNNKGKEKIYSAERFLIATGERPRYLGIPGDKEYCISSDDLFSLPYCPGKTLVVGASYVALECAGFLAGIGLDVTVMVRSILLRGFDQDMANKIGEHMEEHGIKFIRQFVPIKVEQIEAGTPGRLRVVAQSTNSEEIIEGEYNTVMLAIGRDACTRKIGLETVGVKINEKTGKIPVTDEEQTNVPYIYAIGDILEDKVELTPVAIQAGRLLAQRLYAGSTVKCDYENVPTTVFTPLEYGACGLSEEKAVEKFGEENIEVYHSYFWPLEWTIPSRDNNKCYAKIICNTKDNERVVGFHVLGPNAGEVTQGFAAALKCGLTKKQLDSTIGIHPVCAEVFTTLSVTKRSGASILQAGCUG
Chain of proteins of HEK293T cells transiently overexpressing caspase-6 (Homo sapiens, UniProt P35232) (P35232 whole entry): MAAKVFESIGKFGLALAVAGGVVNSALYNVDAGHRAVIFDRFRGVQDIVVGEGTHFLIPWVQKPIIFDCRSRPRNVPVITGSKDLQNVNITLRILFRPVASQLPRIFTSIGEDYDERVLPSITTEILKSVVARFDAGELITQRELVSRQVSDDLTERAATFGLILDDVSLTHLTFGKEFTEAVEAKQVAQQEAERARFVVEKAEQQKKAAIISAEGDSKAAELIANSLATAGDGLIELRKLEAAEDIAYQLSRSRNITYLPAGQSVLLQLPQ
Chain of proteins of HEK293T cells transiently overexpressing caspase-6 (Homo sapiens, UniProt P61619) (P61619 whole entry): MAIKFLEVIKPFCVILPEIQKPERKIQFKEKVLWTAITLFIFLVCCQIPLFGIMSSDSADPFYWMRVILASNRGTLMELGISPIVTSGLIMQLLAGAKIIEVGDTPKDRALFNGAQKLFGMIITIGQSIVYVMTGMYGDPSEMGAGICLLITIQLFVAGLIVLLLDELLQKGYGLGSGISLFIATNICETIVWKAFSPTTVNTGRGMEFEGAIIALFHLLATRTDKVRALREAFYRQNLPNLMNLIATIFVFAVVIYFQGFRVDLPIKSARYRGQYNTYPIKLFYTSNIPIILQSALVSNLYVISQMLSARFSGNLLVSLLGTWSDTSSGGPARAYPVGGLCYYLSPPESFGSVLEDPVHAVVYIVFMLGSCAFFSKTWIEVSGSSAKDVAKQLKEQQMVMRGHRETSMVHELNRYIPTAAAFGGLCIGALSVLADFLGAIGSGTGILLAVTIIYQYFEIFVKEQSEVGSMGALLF

With `C#CCOc1ccc([C@@H]2C[C@@H](C(=O)Nc3ccc(OC(F)(F)F)cc3)CN(S(=O)(=O)C=C)C2)cc1` (relative stereo) [13-t] the enrich.exp.med [1] was -0.1387, the enrich.exp.med [2] was 0.5734 and the enrich.exp.med [3] was 0.5807. For the same compound, the enrich.exp.med ([4]; exp_ref Probe, analysis C6) was 0.3594, the enrich.exp.med.lin [4] was 1.283 and the enrich.exp.med.log2 [4] was 0.3594. The enrich.exp.med ([5]; exp_ref Probe, analysis C6) was 0.932, the enrich.exp.med.lin [5] was 1.908 and the enrich.exp.med.log2 [5] was 0.932. For the same compound, the enrich.exp.med [6] was -1.006, the enrich.exp.med [7] was 1.012 and the enrich.exp.med.lin [8] was 5.403. The enrich.exp.med.log2 [8] was 2.434, the enrich.exp.med.lin ([8]; Expt Probe, analysis C6) was 5.403 and the enrich.exp.med.log2 ([8]; Expt Probe, analysis C6) was 2.434. For the same compound, the enrich.exp.med ([8]; exp_ref Probe, analysis C6) was 2.434, the enrich.exp.med [9] was -1.532 and the enrich.exp.med [10] was -0.009915. For the same compound, the enrich.exp.med [11] was 1.0337, the enrich.exp.med [12] was 0.006951 and the enrich.exp.med.lin [13] was 4.704. It also gave an enrich.exp.med.log2 [13] of 2.234, an enrich.exp.med.lin ([13]; Expt Probe, analysis C6) of 4.704 and an enrich.exp.med.log2 ([13]; Expt Probe, analysis C6) of 2.234. The enrich.exp.med ([13]; exp_ref Probe, analysis C6) was 2.234, the enrich.exp.med ([14]; exp_ref Probe, analysis C6) was 0.9115 and the enrich.exp.med.lin [14] was 1.881. For the same compound, the enrich.exp.med.log2 [14] was 0.9115, the enrich.exp.med ([15]; exp_ref Probe, analysis C6) was 0.4939 and the enrich.exp.med.lin [15] was 1.408. For the same compound, the enrich.exp.med.log2 [15] was 0.4939, the enrich.exp.med ([16]; exp_ref Probe, analysis C6) was 0.7015 and the enrich.exp.med.lin [16] was 1.626. For the same compound, the enrich.exp.med.log2 [16] was 0.7015.
